Test results published in article PMC8121805, “Discovery of first-in-class inhibitors of ASH1L histone methyltransferase with anti-leukemic activity” (Nature Communications, 2021).
Where “and” joins values, the source holds several entries; their conditions need not be identical. Identical values can stand only once.

Biological target: ASH1L (amino acids 2046–2330) (Homo sapiens, UniProt Q9NR48)
Test: Histone methyltransferase (HMT) assay
Method: The mixtures of ASH1L and compounds were incubated at room temperature for 1 h. […] The reaction was continued for 1 h at room temperature, then quenched by addition of 10% Trichloroacetic acid (TCA) and then transferred to 96-well filter plates (Millipore sigma, MSFBN6B), washed twice with 10% TCA and then once with 200-proof ethanol. After extensive drying, 70 µL of Microscint-O scintillant (PerkinElmer) was added and counts per minute (CPM) were measured using a MicroBeta microplate counter (PerkinElmer). Titration curves were plotted using Prism (GraphPad Prism 8.0.0.) and IC50 values were calculated.

Compound: CN1CC(C(=O)NCc2ccc3c(-c4cccc(C(N)=O)c4)cn(C4CCN(S(=O)(=O)C(F)(F)F)CC4)c3c2)C1 [AS-nc]
- reduced inhibitory activity (thioamide of AS-99 replaced with amide): ~ 100 fold
- IC50 (IC50, HMT assay with nucleosomes as substrate, mean ± s.d. from two independent experiments): 72 µM
- % Ash1L activity (Log[compound] (M) -3): 8.534% and 3.267%
- % Ash1L activity (Log[compound] (M) -3.47712): 48.6163% and 37.7254%
- % Ash1L activity (Log[compound] (M) -3.95424): 56.4006% and 63.2923%
- % Ash1L activity (Log[compound] (M) -4.43136): 67.1309% and 48.4913%
- % Ash1L activity (Log[compound] (M) -4.90849): 72.7906% and 62.8102%
- % Ash1L activity (Log[compound] (M) -5.38561): 70.7731% and 79.0573%
- % Ash1L activity (Log[compound] (M) -5.86273): 90.948% and 119.086%
